Laboratory results reported in patent US12599582B2, “Pyrrole compounds” (ALIGOS THERAPEUTICS, INC., priority 2019, dated 2026).

These compounds were tested on HBV (assay: HBV-DNA Antiviral Assay Using HepG2.2.15 Cells (extracellular HBV DNA by qPCR)). Conditions: HBV DNA inhibition, HepG2.2.15 cells, extracellular HBV DNA by qPCR; read-out: EC50.
Format: cell-based, hepatitis B virus (HBV)
In short: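 HepG2.2.15 cells were treated on day 1 with 8 concentrations (4-fold dilutions, duplicate; 0.5% DMSO), with compound-containing medium refreshed on day 4, at 37 °C. On day 7, supernatant HBV DNA was measured by qPCR against a plasmid standard curve, with inhibition normalised between DMSO and ETV controls. EC50/EC90 and CC50 (CellTiter-Glo ATP) came from variable-slope fits.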
For `Cc1c(C(=O)C(=O)NC2(c3cn(C4CC4)nn3)CC(F)(F)C2)c(C)n(C)c1C(=O)Nc1ccc(F)c(C(F)(F)F)c1` [Compound 146, 4-[2-[[1-(1-cyclopropyltriazol-4-yl)-3,3-difluoro-cyclobutyl]amino]-2-oxo-acetyl]-N-[4-fluoro-3-(trifluoromethyl)phenyl]-1,3,5-trimethyl-pyrrole-2-carboxamide], the EC50 was 1 to 10 nM. Work on `Cc1c(C(=O)C(=O)NC2(c3c[nH]nn3)COC2)c(C)n(C)c1C(=O)Nc1ccc(F)c(C#N)c1` [Compound 29, N-(3-cyano-4-fluoro-phenyl)-1,3,5-trimethyl-4-[2-oxo-2-[[3-(1H-triazol-4-yl)oxetan-3-yl]amino]acetyl]pyrrole-2-carboxamide] yielded an EC50 of 1 to 10 nM. `Cc1c(C(=O)C(=O)NC(C)(C)c2ccc(F)cn2)c(C)n(C)c1C(=O)Nc1ccc(F)c(C(F)(F)F)c1` [Compound 147, 4-[2-[[l-(5-fluoro-2-pyridyl)-1-methyl-ethyl]amino]-2-oxo-acetyl]-N-[4-fluoro-3-(trifluoromethyl)phenyl]-1,3,5-trimethyl-pyrrole-2-carboxamide] showed an EC50 of 1 to 10 nM.

Same assay, conditions: Hepatitis B virus, HepG2.2.15
For `C#CC1(NC(=O)C(=O)c2c(C)c(C(=O)Nc3ccc(F)c(C#N)c3)n(C)c2C)COC1` [Compound 26, N-(3-cyano-4-fluorophenyl)-4-[[(3-ethynyloxetan-3-yl)carbamoyl]carbonyl]-1,3,5-trimethylpyrrole-2-carboxamide], the EC50 was < 1 nM.

Same assay, conditions: Hepatitis B virus; HBV DNA inhibition, HepG2.2.15 cells, extracellular HBV DNA by qPCR; read-out: EC50
With `Cc1c(C(=O)C(=O)NC(C)(C)c2c[nH]cn2)c(C)n(C)c1C(=O)Nc1ccc(F)c(C(F)(F)F)c1` [Compound 106, N-[4-fluoro-3-(trifluoromethyl)phenyl]-4-[2-[[1-(1H-imidazol-4-yl)-1-methyl-ethyl]amino]-2-oxo-acetyl]-1,3,5-trimethyl-pyrrole-2-carboxamide] the EC50 was 1 to 10 nM. `C#CC1(NC(=O)C(=O)c2c(C)c(C(=O)Nc3ccc(F)c(F)c3)n(C)c2C)COC1` [Compound 86, N-(3,4-difluorophenyl)-4-[2-[(3-ethynyloxetan-3-yl)amino]-2-oxo-acetyl]-1,3,5-trimethyl-pyrrole-2-carboxamide] was tested, and the EC50 was 1 to 10 nM. In the case of `C#C[C@@H](NC(=O)C(=O)c1c(C)c(C(=O)Nc2ccc(F)c(C#N)c2)n(C)c1C)C1COC1` [Compound 58, N-(3-cyano-4-fluoro-phenyl)-1,3,5-trimethyl-4-[2-oxo-2-[[(1S)-1-(oxetan-3-yl)prop-2-ynyl]amino]acetyl]pyrrole-2-carboxamide], the EC50 is reported as 1 to 10 nM. In the case of `C#CC1(NC(=O)C(=O)c2c(C)c(C(=O)Nc3ccc(F)c(C#N)c3)n(C)c2C)CC(F)(F)C1` [Compound 24, N-(3-cyano-4-fluoro-phenyl)-4-[2-[(1-ethynyl-3,3-difluoro-cyclobutyl)amino]-2-oxo-acetyl]-1,3,5-trimethyl-pyrrole-2-carboxamide], the EC50 is reported as < 1 nM. `Cc1c(C(=O)C(=O)NC(C)(C)c2cncnc2)c(C)n(C)c1C(=O)Nc1ccc(F)c(C(F)(F)F)c1` [Compound 148, N-[4-fluoro-3-(trifluoromethyl)phenyl]-1,3,5-trimethyl-4-[2-[(1-methyl-1-pyrimidin-5-yl-ethyl)amino]-2-oxo-acetyl]pyrrole-2-carboxamide] was tested, and the EC50 was 1 to 10 nM. `C#C[C@H](CCO)NC(=O)C(=O)c1c(C)c(C(=O)Nc2ccc(F)c(C#N)c2)n(C)c1C` [Compound 61b, N-(3-cyano-4-fluoro-phenyl)-1,3,5-trimethyl-4-[2-oxo-2-[[(1S)-1-(2-hydroxyethyl)prop-2-ynyl]amino]acetyl]pyrrole-2-carboxamide] gave an EC50 of 1 to 10 nM. In the case of `Cc1c(C(=O)C(=O)NC2(c3ncc[nH]3)COC2)c(C)n(C)c1C(=O)Nc1ccc(F)c(C(F)(F)F)c1` [Compound 155, N-[4-fluoro-3-(trifluoromethyl)phenyl]-4-[2-[[3-(1H-imidazol-2-yl)oxetan-3-yl]amino]-2-oxo-acetyl]-1,3,5-trimethyl-pyrrole-2-carboxamide], the EC50 is reported as 1 to 10 nM. Work on `C#C[C@@H](COC)NC(=O)C(=O)c1c(C)c(C(=O)Nc2ccc(F)c(C#N)c2)n(C)c1C` [Compound 28a, N-(3-cyano-4-fluoro-phenyl)-4-[2-[[(1S)-1-(methoxymethyl)prop-2-ynyl]amino]-2-oxo-acetyl]-1,3,5-trimethyl-pyrrole-2-carboxamide] yielded an EC50 of 1 to 10 nM. With `C#C[C@](C)(CO)NC(=O)C(=O)c1c(C)c(C(=O)Nc2ccc(F)c(C(F)(F)F)c2)n(C)c1C` [Compound 66a, (R)—N-(4-fluoro-3-(trifluoromethyl)phenyl)-4-(2-((1-hydroxy-2-methylbut-3-yn-2-yl)amino)-2-oxoacetyl)-1,3,5-trimethyl-1H-pyrrole-2-carboxamide] the EC50 was < 1 nM. `Cc1c(C(=O)C(=O)NC2(C#CC3(O)CC3)COC2)c(C)n(C)c1C(=O)Nc1ccc(F)c(C#N)c1` [Compound 102, N-(3-cyano-4-fluoro-phenyl)-4-[2-[[3-[2-(1-hydroxycyclopropyl)ethynyl]oxetan-3-yl]amino]-2-oxo-acetyl]-1,3,5-trimethyl-pyrrole-2-carboxamide] showed an EC50 of 1 to 10 nM. In the case of `C#C[C@@H](NC(=O)C(=O)c1c(C)c(C(=O)Nc2ccc(F)c(C#N)c2)n(C)c1C)C(C)(C)C` [Compound 30b, N-(3-cyano-4-fluoro-phenyl)-1,3,5-trimethyl-4-[2-oxo-2-[[(1S)-1-tert-butylprop-2-ynyl]amino]acetyl]pyrrole-2-carboxamide], the EC50 is reported as < 1 nM. `C#CC1(NC(=O)C(=O)c2c(C)c(C(=O)Nc3ccc(F)c(C(F)F)c3)n(C)c2Cl)CC(F)(F)C1` [Compound 81, 5-chloro-N-[3-(difluoromethyl)-4-fluoro-phenyl]-4-[2-[(1-ethynyl-3,3-difluoro-cyclobutyl)amino]-2-oxo-acetyl]-1,3-dimethyl-pyrrole-2-carboxamide] gave an EC50 of 1 to 10 nM. For `C#CC1(NC(=O)C(=O)c2c(C)c(C(=O)Nc3ccc(F)c(C#N)c3)n(C)c2Cl)CC(F)(F)C1` [Compound 39, 5-chloro-N-(3-cyano-4-fluoro-phenyl)-4-[2-[(1-ethynyl-3,3-difluoro-cyclobutyl)amino]-2-oxo-acetyl]-1,3-dimethyl-pyrrole-2-carboxamide], the EC50 was < 1 nM. For `C#CC1(NC(=O)C(=O)c2c(C)c(C(=O)Nc3ccc(F)c(C(F)(F)F)c3)n(C)c2C)CC(F)(F)C1` [Compound 37, 4-[2-[(1-ethynyl-3,3-difluoro-cyclobutyl)amino]-2-oxo-acetyl]-N-[4-fluoro-3-(trifluoromethyl)phenyl]-1,3,5-trimethyl-pyrrole-2-carboxamide], the EC50 was < 1 nM. `C#CC1(NC(=O)C(=O)c2c(C)c(C(=O)Nc3ccc(F)c(C#N)c3)n(C)c2C)CCS(=O)(=O)CC1` [Compound 108, N-(3-cyano-4-fluoro-phenyl)-4-[2-[(4-ethynyl-1,1-dioxo-thian-4-y1)amino]-2-oxo-acetyl]-1,3,5-trimethyl-pyrrole-2-carboxamide] was tested, and the EC50 was 1 to 10 nM. `Cc1c(C(=O)C(=O)NC(C)(C)c2ccccn2)c(C)n(C)c1C(=O)Nc1ccc(F)c(C(F)(F)F)c1` [Compound 99, N-[4-fluoro-3-(trifluoromethyl)phenyl]-1,3,5-trimethyl-4-[2-[[1-methyl-1-(2-pyridyl)ethyl]amino]-2-oxo-acetyl]pyrrole-2-carboxamide] showed an EC50 of 1 to 10 nM. `Cc1c(C(=O)C(=O)NC(C)(C)c2c[nH]cn2)c(C)n(C)c1C(=O)Nc1ccc(F)c(C#N)c1` [Compound 104, N-(3-cyano-4-fluoro-phenyl)-4-[2-[[1-(1H-imidazol-4-yl)-1-methyl-ethyl]amino]-2-oxo-acetyl]-1,3,5-trimethyl-pyrrole-2-carboxamide] showed an EC50 of 1 to 10 nM. Work on `C#C[C@H](COC)NC(=O)C(=O)c1c(C)c(C(=O)Nc2ccc(F)c(C#N)c2)n(C)c1C` [Compound 28b, N-(3-cyano-4-fluoro-phenyl)-4-[2-[[(1R)-1-(methoxymethyl)prop-2-ynyl]amino]-2-oxo-acetyl]-1,3,5-trimethyl-pyrrole-2-carboxamide] yielded an EC50 of 1 to 10 nM. With `Cc1c(C(=O)C(=O)NC(C)(C)c2ccccn2)c(C)n(C)c1C(=O)Nc1ccc(F)c(C#N)c1` [Compound 91, N-(3-cyano-4-fluoro-phenyl)-1,3,5-trimethyl-4-[2-[[1-methyl-1-(2-pyridyl)ethyl]amino]-2-oxo-acetyl]pyrrole-2-carboxamide] the EC50 was 1 to 10 nM. `C#CC(C)(C)NC(=O)C(=O)c1c(C)c(C(=O)Nc2ccc(F)c(F)c2)n(C)c1C` [Compound 90, N-(3,4-difluorophenyl)-4-[2-(1,1-dimethylprop-2-ynylamino)-2-oxo-acetyl]-1,3,5-trimethyl-pyrrole-2-carboxamide] showed an EC50 of 1 to 10 nM. Compound `Cc1c(C(=O)C(=O)NC2(C#C[C@H](C)O)COC2)c(C)n(C)c1C(=O)Nc1ccc(F)c(C#N)c1` [Compound 94b, N-(3-cyano-4-fluoro-phenyl)-1,3,5-trimethyl-4-[2-oxo-2-[[3-[(3S)-3-hydroxybut-1-ynyl]oxetan-3-yl]amino]acetyl]pyrrole-2-carboxamide] has an EC50 of 1 to 10 nM. `C#CC1(NC(=O)C(=O)c2c(C)c(C(=O)Nc3ccc(F)c(C#N)c3)n(C)c2C)CC1` [Compound 14, N-(3-cyano-4-fluoro-phenyl)-4-[2-[(1-ethynylcyclopropyl)amino]-2-oxo-acetyl]-1,3,5-trimethyl-pyrrole-2-carboxamide] was tested, and the EC50 was < 1 nM. In the case of `C#CC(C)(C)NC(=O)C(=O)c1c(C)c(C(=O)Nc2ccc(F)c(C(F)(F)F)c2)n(C)c1C` [Compound 35, 4-[2-(1,1-dimethylprop-2-ynylamino)-2-oxo-acetyl]-N-[4-fluoro-3-(trifluoromethyl)phenyl]-1,3,5-trimethyl-pyrrole-2-carboxamide], the EC50 is reported as < 1 nM. `C#CCNC(=O)C(=O)c1c(Cl)c(C(=O)Nc2ccc(F)c(C#N)c2)n(C)c1C` [Compound 21, 3-chloro-N-(3-cyano-4-fluoro-phenyl)-1,5-dimethyl-4-[2-oxo-2-(prop-2-ynylamino)acetyl]pyrrole-2-carboxamide] gave an EC50 of 1 to 10 nM.
